Here are results for eight compounds from PubChem BioAssay (NCI).

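These data come from cells grown in 96-well plates and exposed to compound for 48 hours at five concentrations. TGI marks complete inhibition of growth.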

Holding throughout (assay): NCI-60 cell line screen, 48 h
The subject of experiment [1] is ACHN renal.
The test system of experiment [2] is NCI-H522 lung.
The test system of experiment [3] is HCC-2998 colon.
The test system of experiment [4] is SK-MEL-2 melanoma.
In experiment [5] the test system is SNB-78 CNS.
The test system of experiment [6] is M14 melanoma.
The subject of experiment [7] is TK-10 renal.
Experiment [8] concerns NCI-H23 lung.
For experiment [9], the system named is SF-539 CNS.
For experiment [10], the system named is SR leukemia.
For experiment [11], the system named is OVCAR-4 ovarian.
In experiment [12] the test system is LOX IMVI melanoma.
Experiment [13] concerns CCRF-CEM leukemia.
The subject of experiment [14] is MDA-MB-231 breast.
Experiment [15] relates to MCF7 breast.
Experiment [16] concerns T-47D breast.
Experiment [17] concerns MDA-MB-435.
Experiment [18] deals with PC-3 prostate.
For experiment [19], the system named is DU-145 prostate.
Experiment [20] has as its system MDA-N.

With `COc1ccc(/C(Cl)=C(/c2ccc(O)cc2)c2ccc(OCCN(C)C)cc2)cc1`, the TGI in experiment [1] amounted to 27.8 µM; in experiment [2], 25.1 µM; in experiment [3] it was 30.5 µM; in experiment [4] it was 22.4 µM; in [5] it was 29.3 µM; in experiment [6], 4.22 µM. Besides, the TGI in experiment [7] was found to be 34.1 µM; in experiment [8] it was 29.1 µM; in experiment [9], 23.8 µM; in [10] it was 10.6 µM; in experiment [11] it was 27.1 µM; in [12], 12.6 µM.
Turning to `COc1ccc(NC(=O)CC(=O)N2N=C(N(CCC#N)c3ccccc3Cl)CC2c2ccccc2)cc1` (centres undefined), the TGI in experiment [1], in experiment [2], in experiment [3], in experiment [4], in experiment [5] and in experiment [6] was greater than 100 µM throughout. Moreover, the TGI in [7], in experiment [8], in experiment [9], in experiment [10], in experiment [13] and in [11] was greater than 100 µM throughout. Moreover, the TGI in [12] is greater than 100 µM.
Turning to `Nc1ccc2nc(NCc3ccc(F)cc3)cnc2c1`, the TGI in experiment [1], in experiment [2], in [3], in experiment [4], in experiment [5] and in experiment [6] was greater than 100 µM in each case. Also, the TGI in experiment [7], in experiment [8], in experiment [9], in experiment [10], in [13] and in [11] was greater than 100 µM each time. Besides, the TGI in experiment [12] was greater than 100 µM.
For the compound `CCN(CC)c1ccc(/C=C2/C[N+](C)(C)C/C(=C/c3ccc(N(CC)CC)cc3)C2=O)cc1`, the TGI in experiment [14] was 5.87 µM; in experiment [1], greater than 100 µM; in experiment [2] it was 7.74 µM; in [15], 6.04 µM; in experiment [3] it was 6.25 µM; in [4], 3.92 µM. Also, the TGI in experiment [5] was found to be 9.62 µM; in experiment [16], 11.3 µM; in experiment [6], 7.07 µM; in [17], 3.69 µM; in experiment [7], 61.8 µM; in [18], 35.7 µM. Also, the TGI in experiment [8] was 10.3 µM; in [19], greater than 50.6 µM; in [9], 6.19 µM; in experiment [10], 3.52 µM; in [20] it was 3.56 µM; in [13] it was 3.42 µM. For the same compound, the figures for the TGI in experiment [11] and in [12] were 13.8 µM and 6.16 µM, respectively.
Consider `C#CCNC(=O)NCCCC(NC(C)=O)C(=O)NCc1ccccc1` (centres undefined), for which the TGI in experiment [1], in experiment [2], in experiment [3], in experiment [5], in [6] and in experiment [7] was greater than 100 µM in each case. Also, the TGI in experiment [8], in experiment [9], in experiment [10], in experiment [13], in [11] and in experiment [12] was greater than 100 µM throughout.
Take `COc1ccccc1/C=C(\C#N)C(=O)c1ccccc1`: the TGI in [1], in [2], in experiment [3], in experiment [4], in experiment [5] and in experiment [6] was greater than 100 µM throughout. For the same compound, the TGI in experiment [8], in experiment [9], in [10], in experiment [13], in [11] and in experiment [12] was greater than 100 µM throughout.
`CC(=O)O[C@]12CCCCC1C1(O)C(O)CCCCC12` (some centres undefined): the TGI in experiment [1], in [2], in [4], in [5], in experiment [6] and in [7] was greater than 100 µM throughout. For the same compound, the TGI in experiment [8], in experiment [10], in experiment [13], in [11] and in experiment [12] was greater than 100 µM in each case.
For `NC(=O)C#CC#CC#CCO`, the TGI came to 2.61 µM in experiment [1]; 0.301 µM in experiment [2]; 3.1 µM in experiment [3]; 4.9 µM in [4]; 7.03 µM in [5]; 3.63 µM in [6]. The TGI in [7] was determined as 3.01 µM; in [8], 3.93 µM; in [10], 4.54 µM; in [11] it was 3.53 µM; in experiment [12], 3.83 µM.
